Results from patent publication US20240247080A1, “GLP1/GIP/NPY2 RECEPTOR TRIPLE AGONISTS” (Boehringer Ingelheim International GmbH, priority 2022, published 2024).
Like-named read-outs stand apart in the source and are kept apart here. Starred links: 1 amine or outer side, 2 acyl side, 3 side chain; linkers in the order of their positions; H or OH if unused. Non-standard residues stand in square brackets, D forms with d. Groups on a side chain read outwards from the residue. No end group written: not given here. *: point of attachment. C20 diacid = O=C(O)CCCCCCCCCCCCCCCCCCC(=O)*; C18 diacid = O=C(O)CCCCCCCCCCCCCCCCC(=O)*; γGlu = O=C(O)[C@H](CCC(=O)[*:2])N[*:1]; εLys = N[C@@H](CCCCN[*:1])C(=O)[*:2]; NMeR = CN[C@@H](CCCNC(=N)N)C(=O)O; AEEA = NCCOCCOCC(=O)O; Aib = CC(C)(N)C(=O)O; Ahx = NCCCCCC(=O)O

Experiments:
Type in all cases: cell-based
hNPY2R = molecular target: T1, hNPY2R (Homo sapiens, UniProt P49146); experiment: hNPY2R CreLuc reporter gene assay in 0.5% and 100% plasma; conditions: CreLuc reporter gene assay, 0.5% human plasma; read-out: hNPY2R 0.5% hP
T1 construct: expressed in transfected cells; host or cells: HEK-293 cells carrying a CRE-luciferase reporter gene
T1 sequence (P49146 1-381): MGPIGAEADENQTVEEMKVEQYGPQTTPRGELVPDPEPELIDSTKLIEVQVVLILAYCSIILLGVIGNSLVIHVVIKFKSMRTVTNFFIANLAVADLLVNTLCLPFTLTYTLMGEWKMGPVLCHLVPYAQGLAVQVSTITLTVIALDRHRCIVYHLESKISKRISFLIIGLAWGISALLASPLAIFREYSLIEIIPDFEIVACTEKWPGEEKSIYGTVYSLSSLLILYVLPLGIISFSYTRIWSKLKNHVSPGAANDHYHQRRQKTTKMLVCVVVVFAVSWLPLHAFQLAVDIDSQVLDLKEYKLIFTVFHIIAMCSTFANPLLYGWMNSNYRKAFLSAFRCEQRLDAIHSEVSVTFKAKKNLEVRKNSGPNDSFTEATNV
Description: (§1) Example 1: hGLPR/hGIPR/hNPY2R CreLuc Assay in 0.5% and 100% Plasma
(§2) CHO and HEK-293 recombinant cell lines express a luciferase reporter gene under control of the cAMP responsive element (CRE). As a second recombinant protein the GLP-1 and NPY2 receptors were expressed in the reporter gene HEK cells, and the GIP receptor was expressed in the reporter gene CHO cells, respectively. Stimulation of these recombinant cells with an agonist leads to an increase of intracellular cAMP levels. In the presence of cAMP, the transcription factor CRE binding protein (CREB) binds to the CRE and to the CREB binding protein (CBP), which leads to transcription of the luciferase reporter gene. Peptides upon serial-dilution in 100% DMSO were transferred into 384-well assay plates with 5 μl pre-dispensed assay buffer (1×HBSS, 20 mM HEPES, pH7.4 supplemented with 0.5% human plasma) using acoustic dispensing on a Labcyte ECHO. Cryo-preserved transgenic reporter gene cells were thawed in assay buffer. 20 μl (10.000 cells/well) were added to the plate with the peptides and incubated for 4 hours at 37° C. in a humidified incubator. Following incubation, assay plates are equilibrated to room temperature, followed by addition of 25 μl of Bright-GIo™ Luciferase reagent, incubation at room temperature for 10 minutes and analysis of luminescence (Envision Reader). Concentration response evaluation of compounds was performed with 8 concentrations of peptides (covering four decades). EC50 values were calculated by non-linear regression using sigmoid concentration-response with variable slope. The same assays were run in the presence of 100% plasma with no additional buffer constituents.

hGLP1R = molecular target: T2, hGLP1R (Homo sapiens, UniProt P43220); experiment: hGLP1R CreLuc reporter gene assay in 0.5% and 100% plasma; conditions: CreLuc reporter gene assay
T2 construct: expressed in transfected cells; host or cells: HEK-293 cells carrying a CRE-luciferase reporter gene
T2 sequence (P43220 24-463): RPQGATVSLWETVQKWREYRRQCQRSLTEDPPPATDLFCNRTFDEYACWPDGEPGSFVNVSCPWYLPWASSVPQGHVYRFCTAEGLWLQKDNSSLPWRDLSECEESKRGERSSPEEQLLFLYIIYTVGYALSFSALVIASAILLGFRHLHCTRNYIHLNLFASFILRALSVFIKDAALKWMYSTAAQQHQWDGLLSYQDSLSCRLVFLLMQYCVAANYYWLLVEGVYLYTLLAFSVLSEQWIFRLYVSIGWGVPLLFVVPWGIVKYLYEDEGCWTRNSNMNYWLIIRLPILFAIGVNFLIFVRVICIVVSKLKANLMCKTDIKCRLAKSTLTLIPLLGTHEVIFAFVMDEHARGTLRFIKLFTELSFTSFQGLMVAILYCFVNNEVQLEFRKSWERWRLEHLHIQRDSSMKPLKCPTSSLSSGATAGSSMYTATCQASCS
Description: as §1, §2

hGIPR = molecular target: T3, hGIPR (Homo sapiens, UniProt P48546); experiment: hGIPR CreLuc reporter gene assay in 0.5% and 100% plasma; conditions: CreLuc reporter gene assay
T3 construct: expressed in transfected cells; host or cells: CHO cells carrying a CRE-luciferase reporter gene
T3 sequence (P48546 22-466): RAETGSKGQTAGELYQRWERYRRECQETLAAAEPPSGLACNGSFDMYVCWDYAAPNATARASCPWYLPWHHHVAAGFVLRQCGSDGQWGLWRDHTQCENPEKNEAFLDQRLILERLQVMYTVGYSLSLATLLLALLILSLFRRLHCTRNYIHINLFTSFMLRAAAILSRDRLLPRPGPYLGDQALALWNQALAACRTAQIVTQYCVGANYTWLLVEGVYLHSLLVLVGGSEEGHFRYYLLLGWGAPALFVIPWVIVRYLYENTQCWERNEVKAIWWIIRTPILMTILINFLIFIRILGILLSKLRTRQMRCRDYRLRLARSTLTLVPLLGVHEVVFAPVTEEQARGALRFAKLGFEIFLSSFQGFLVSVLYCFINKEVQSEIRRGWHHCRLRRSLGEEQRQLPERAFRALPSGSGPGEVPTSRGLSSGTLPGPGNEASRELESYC
Description: as §1, §2

[1] = 0.5% human plasma, read-out: hGLP1R 0.5% hP
[2] = 0.5% human plasma, read-out: hGIPR 0.5% hP
[3] = 100% human plasma, read-out: hGIPR 100% hP
[4] = 100% human plasma, read-out: hGLP1R 100% hP

Substance	EC50 (hNPY2R) [nM]	EC50 (hGLP1R; [1]) [nM]	EC50 (hGIPR; [2]) [nM]	EC50 (hGIPR; [3]) [nM]	EC50 (hGLP1R; [4]) [nM]
H-Y[Aib]EGTFTSDYSI[Aib]LE[Aib]KAQ[Aib]EFVEWLIK([εLys-γGlu-γGlu-γGlu-γGlu-γGlu-γGlu-C20 diacid])GGPSSGASLRHYYNWLTRQRY-NH2 [Compound 24, Y-Aib-E-G-T-F-T-S-D-Y-S-I-Aib-L-E-Aib-K-A-Q-Aib-E-F-V-E-W-L-I-K(1,3)-GGPSSGASLRHYYNWLTRQRY-NH2.C20DA-gGlu-gGlu-gGlu-gGlu-gGlu-gGlu-eLys(1,2)]	26.8				
H-Y[Aib]EGTFTSDYSI[Aib]LEKQAQ[Aib]AFVEWLIK([AEEA-AEEA-γGlu-γGlu-γGlu-γGlu-γGlu-C18 diacid])GGPSSGASLRHYYNWLTRQRY-NH2 [Compound 261, Y-Aib-E-G-T-F-T-S-D-Y-S-I-Aib-L-E-K-Q-A-Q-Aib-A-F-V-E-W-L-I-K(1,3)-GGPSSGASLRHYYNWLTRQRY-NH2.C18DA-gGlu-gGlu-gGlu-gGlu-gGlu-OEG-OEG(1,2)]		0.15	0.18	1.15	
H-Y[Aib]EGTFTSDYSI[Aib]LEKQAQ[Aib]AFVQWLIK([AEEA-AEEA-γGlu-γGlu-γGlu-γGlu-γGlu-C20 diacid])GGPSEGASLRHYYNWLTRQRY-NH2 [Compound 228, Y-Aib-E-G-T-F-T-S-D-Y-S-I-Aib-L-E-K-Q-A-Q-Aib-A-F-V-Q-W-L-I-K(1,3)-GGPSEGASLRHYYNWLTRQRY-NH2.C20DA-gGlu-gGlu-gGlu-gGlu-gGlu-OEG-OEG(1,2)]		0.12	0.23	1.52	
H-Y[Aib]EGTFTSDYSI[Aib]LEKQAQ[Aib]AFVEWLIK([εLys-γGlu-γGlu-γGlu-γGlu-γGlu-γGlu-C20 diacid])GGPSSGAS[Aib]RHYYNWLTRQRY-NH2 [Compound 118, Y-Aib-E-G-T-F-T-S-D-Y-S-I-Aib-L-E-K-Q-A-Q-Aib-A-F-V-E-W-L-I-K(1,3)-G-G-P-S-S-G-A-S-Aib-R-H-Y-Y-N-W-L-T-R-Q-R-Y-NH2.C20DA-gGlu-gGlu-gGlu-gGlu-gGlu-gGlu-eLys(1,2)]		0.05	0.06	0.55	
H-Y[Aib]EGTFTSDYSI[Aib]LEKQAQ[Aib]AFVEWLIK([εLys-γGlu-γGlu-γGlu-γGlu-γGlu-γGlu-C20 diacid])GGPSSAVSLRHYYNWLTRQRY-NH2 [Compound 33, Y-Aib-E-G-T-F-T-S-D-Y-S-I-Aib-L-E-K-Q-A-Q-Aib-A-F-V-E-W-L-I-K(1,3)-GGPSSAVSLRHYYNWLTRQRY-NH2.C20DA-gGlu-gGlu-gGlu-gGlu-gGlu-gGlu-eLys(1,2)]		0.14	0.25		3.17
H-Y[Aib]EGTFTSDYSI[Aib]LEKQAQ[Aib]AFVEWLIK([εLys-γGlu-γGlu-γGlu-γGlu-γGlu-γGlu-C20 diacid])GGPSSGISLRHYYNWLTRQRY-NH2 [Compound 94, Y-Aib-E-G-T-F-T-S-D-Y-S-I-Aib-L-E-K-Q-A-Q-Aib-A-F-V-E-W-L-I-K(1,3)-GGPSSGISLRHYYNWLTRQRY-NH2.C20DA-gGlu-gGlu-gGlu-gGlu-gGlu-gGlu-eLys(1,2)]		0.09	0.22	1.04	
H-Y[Aib]EGTFTSDYSI[Aib]LEKQAQ[Aib]AFVEWLIK([Ahx-γGlu-γGlu-γGlu-γGlu-γGlu-C18 diacid])GGPSEGASLRHYYNWLTRQRY-NH2 [Compound 304, Y-Aib-E-G-T-F-T-S-D-Y-S-I-Aib-L-E-K-Q-A-Q-Aib-A-F-V-E-W-L-I-K(1,3)-GGPSEGASLRHYYNWLTRQRY-NH2.C18DA-gGlu-gGlu-gGlu-gGlu-gGlu-AHX(1,2)]		0.35	0.23	2.35	
Y[Aib]EGTFTSDYSI[Aib]LEKQAQ[Aib]AFIEWLIK([AEEA-AEEA-γGlu-γGlu-γGlu-γGlu-C18 diacid])GGPSEGASLRHYYNWLTRQRY-NH2 [Compound 258, Y-Aib-E-G-T-F-T-S-D-Y-S-I-Aib-L-E-K-Q-A-Q-Aib-A-F-I-E-W-L-I-K(1,3)-GGPSEGASLRHYYNWLTRQRY-NH2.C18DA-gGlu-gGlu-gGlu-glu-OEG-OEG(1,2)]		0.17	0.16	1.23	
H-Y[Aib]EGTFTSDYSI[Aib]LEKQAQ[Aib]AFVQWLIK([γGlu-γGlu-γGlu-γGlu-γGlu-C20 diacid])GGPESGASLRHYYNWLTRQRY-NH2 [Compound 29, Y-Aib-E-G-T-F-T-S-D-Y-S-I-Aib-L-E-K-Q-A-Q-Aib-A-F-V-Q-W-L-I-K(1,3)-GGPESGASLRHYYNWLTRQRY-NH2.C20DA-gGlu-gGlu-gGlu-gGlu-gGlu(1,2)]		0.13	0.23		6.74
Y[Aib]EGTFTSDYSI[Aib]LEKQAQ[Aib]AFVQWLIK([AEEA-AEEA-γGlu-γGlu-γGlu-C18 diacid])GGPSEGASLRHYYNWLTRQRY-NH2 [Compound 266, Y-Aib-E-G-T-F-T-S-D-Y-S-I-Aib-L-E-K-Q-A-Q-Aib-A-F-V-Q-W-L-I-K(1,3)-GGPSEGASLRHYYNWLTRQRY-NH2.C18DA-gGlu-gGlu-gGlu-OEG-OEG(1,2)]		0.1	0.13	0.65	2.21
H-Y[Aib]EGTFTSDYSI[Aib]LEKQAQ[Aib]AFVQWLIK([Ahx-γGlu-γGlu-γGlu-γGlu-γGlu-C18 diacid])GGPEEGASLRHYYNWLTRQRY-NH2 [Compound 162, Y-Aib-E-G-T-F-T-S-D-Y-S-I-Aib-L-E-K-Q-A-Q-Aib-A-F-V-Q-W-L-I-K(1,3)-GGPEEGASLRHYYNWLTRQRY-NH2.C18DA-gGlu-gGlu-gGlu-gGlu-gGlu-AHX(1,2)]		0.2	0.25	1.61	
H-Y[Aib]EGTFTSDYSI[Aib]LEEQAQ[Aib]AFVEWLIK([εLys-γGlu-γGlu-γGlu-γGlu-γGlu-C20 diacid])GGPSSGASLRHYYNWLTRQRY-NH2 [Compound 181, Y-Aib-E-G-T-F-T-S-D-Y-S-I-Aib-L-E-E-Q-A-Q-Aib-A-F-V-E-W-L-I-K(1,3)-GGPSSGASLRHYYNWLTRQRY-NH2.C20DA-gGlu-gGlu-gGlu-gGlu-gGlu-eLys(1,2)]		0.14	0.16	1.23	
H-Y[Aib]EGTFTSDYSI[Aib]LEEQAQ[Aib]AFVQWLIK([εLys-AEEA-γGlu-γGlu-γGlu-γGlu-γGlu-C20 diacid])GGPSSGASLRHYYNWLTRQRY-NH2 [Compound 45, Y-Aib-E-G-T-F-T-S-D-Y-S-I-Aib-L-E-E-Q-A-Q-Aib-A-F-V-Q-W-L-I-K(1,3)-GGPSSGASLRHYYNWLTRQRY-NH2.C20DA-gGlu-gGlu-gGlu-gGlu-gGlu-OEG-eLys(1,2)]		0.11	0.14	1.15	1.6
H-Y[Aib]EGTFTSDYSI[Aib]LEKQAQ[Aib]AFVEWLIK([εLys-γGlu-γGlu-γGlu-γGlu-γGlu-γGlu-C20 diacid])GGPSSGAS[Aib]RHYYNWLTRQ[NMeR]Y-NH2 [Compound 39, Y-Aib-E-G-T-F-T-S-D-Y-S-I-Aib-L-E-K-Q-A-Q-Aib-A-F-V-E-W-L-I-K(1,3)-G-G-P-S-S-G-A-S-Aib-R-H-Y-Y-N-W-L-T-R-Q-NMeR-Y-NH2.C20DA-gGlu-gGlu-gGlu-gGlu-gGlu-gGlu-eLys(1,2)]		0.09	0.06	0.4	0.82
